# Laboratory results as given in patent publication US20250230193A1, “CYCLIC COMPOUND HAVING SELECTIVE KRAS INHIBITORY EFFECT ON HRAS AND NRAS” (CHUGAI SEIYAKU KABUSHIKI KAISHA, priority 2022, published 2025).
# Where a SMILES comes first, the peptide text is derived from it. Bridges are numbered along the chain shown (N, C = ends). [ ]: non-standard residue; d: D form. The star is where a group is joined. hPhe(3-Cl-4-CF3) = N[C@@H](CCc1ccc(C(F)(F)F)c(Cl)c1)C(=O)O; NPrPhe(4-CF3) = CCCN[C@@H](Cc1ccc(C(F)(F)F)cc1)C(=O)O; NEtPhe(4-Me) = CCN[C@@H](Cc1ccc(C)cc1)C(=O)O; NMeGly(cPent) = CN[C@H](C(=O)O)C1CCCC1; NMeD = CN[C@@H](CC(=O)O)C(=O)O; NMeL = CN[C@@H](CC(C)C)C(=O)O; Morpholide = C1CN(*)CCO1; NMeA = CN[C@@H](C)C(=O)O; Ac5c = NC1(C(=O)O)CCCC1; Aze = O=C(O)[C@@H]1CCN1; Ac4c = NC1(C(=O)O)CCC1; Sar = CNCC(=O)O
# Assays:
# [1] = target: GDP-bound HRAS wild-type protein (Homo sapiens, UniProt P01112); test: Binding to HRAS by surface plasmon resonance (SPR), Single Cycle Kinetics; settings: for HRAS/KRAS (ratio of KD value with respect to GDP-bound HRAS wild-type protein to KD value with respect to KRAS): class symbols
# [2] = target: GDP-bound NRAS wild-type protein (Homo sapiens, UniProt P01111); test: Binding to NRAS by surface plasmon resonance (SPR), Single Cycle Kinetics; settings: for NRAS/KRAS (ratio of KD value with respect to GDP-bound NRAS wild-type protein to KD value with respect to KRAS): class symbols
# [3] = KD ratio, GDP-bound HRAS wild-type vs GDP-bound KRAS wild-type, SPR
# [4] = KD ratio, GDP-bound NRAS wild-type vs GDP-bound KRAS wild-type, SPR
# [5] = SPR, GDP-bound HRAS wild-type vs GDP-bound KRAS wild-type
# [6] = SPR, GDP-bound NRAS wild-type vs GDP-bound KRAS wild-type
# Chain of GDP-bound NRAS wild-type protein (P01111 whole entry): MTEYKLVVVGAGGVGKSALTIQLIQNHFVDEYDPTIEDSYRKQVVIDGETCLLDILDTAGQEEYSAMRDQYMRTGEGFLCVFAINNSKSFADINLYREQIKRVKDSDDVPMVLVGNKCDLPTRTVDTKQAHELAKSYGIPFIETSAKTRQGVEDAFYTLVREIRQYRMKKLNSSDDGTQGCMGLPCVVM
# Chain of GDP-bound HRAS wild-type protein (P01112 whole entry): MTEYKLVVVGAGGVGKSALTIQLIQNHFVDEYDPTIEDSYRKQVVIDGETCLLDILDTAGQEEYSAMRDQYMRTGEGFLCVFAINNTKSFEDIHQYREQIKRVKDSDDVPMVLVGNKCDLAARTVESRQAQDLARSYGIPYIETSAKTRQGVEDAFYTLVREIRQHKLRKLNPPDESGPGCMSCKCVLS
smiles,measurement,setting,value
CCCN1C(=O)CN(C)C(=O)CN(C)C(=O)[C@H]([C@@H](C)CC)NC(=O)[C@H](CC(C)C)N(C)C(=O)C[C@@H](C(=O)N2CCOCC2)N(C)C(=O)[C@H](C2CCCC2)N(C)C(=O)C2(CCC2)NC(=O)[C@H](C)N(C)C(=O)[C@H](CCc2ccc(C(F)(F)F)c(Cl)c2)NC(=O)CN(C)C(=O)[C@@H]1Cc1ccc(C(F)(F)F)cc1 [PP1916] ([NMeL]I[Sar][Sar][NPrPhe(4-CF3)][Sar][hPhe(3-Cl-4-CF3)][NMeA][Ac4c][NMeGly(cPent)][NMeD]-Morpholide; lactam N-11),HRAS/KRAS (ratio of KD value for HRAS to KD value for KRAS),[1]; [3],C (A compound having a KD ratio of 0.1 or more and less than 3 is denoted as C)
same,NRAS/KRAS (ratio of KD value for NRAS to KD value for KRAS),[2]; [4],B (a compound having 3 or more and less than 10 is denoted as B)
CC[C@H](C)[C@@H]1NC(=O)[C@H](C)N(C)C(=O)C[C@@H](C(=O)N2CCOCC2)N(C)C(=O)[C@H](C2CCCC2)N(C)C(=O)C2(CCCC2)NC(=O)[C@@H]2CCCN2C(=O)[C@H](CCc2ccc(C(F)(F)F)c(Cl)c2)NC(=O)CN(C)C(=O)[C@H](Cc2ccc(C)cc2)N(CC)C(=O)[C@@H]2CCN2C(=O)[C@H](C)N(C)C1=O [PP0007] ([NMeA]I[NMeA][Aze][NEtPhe(4-Me)][Sar][hPhe(3-Cl-4-CF3)]P[Ac5c][NMeGly(cPent)][NMeD]-Morpholide; lactam N-11),HRAS/KRAS (ratio of KD for GDP-bound HRAS wild-type to KD for KRAS),"[1]; KD ratio HRAS/KRAS, SPR",C (A compound having a KD ratio of 0.1 or more and less than 3 is denoted as C)
same,NRAS/KRAS (ratio of KD for GDP-bound NRAS wild-type to KD for KRAS),"[2]; KD ratio NRAS/KRAS, SPR",C (A compound having a KD ratio of 0.1 or more and less than 3 is denoted as C)
CCO[C@@H]1C[C@H]2C(=O)NC3(CC(C)(C)C3)C(=O)N(C)[C@@H](C3CCCCC3)C(=O)N(C)[C@H](C(=O)N(C)C)CC(=O)N(C)[C@@H](COC)C(=O)N[C@@H]([C@@H](C)CC)C(=O)N(C3CC3)CC(=O)N(C)[C@H]3C/C=C\CCN(C3=O)[C@@H](Cc3ccc(C(F)(F)F)cc3)C(=O)N(C)CC(=O)N[C@@H](CCc3cc(F)c(C(F)(F)F)c(F)c3)C(=O)N2C1 [PP2657],HRAS/KRAS (ratio of KD value with respect to GDP-bound HRAS wild-type protein to KD value with respect to KRAS),[1]; KD ratio HRAS/KRAS,A (a compound having 10 or more and less than 20 is denoted as A)
same,NRAS/KRAS (ratio of KD value with respect to GDP-bound NRAS wild-type protein to KD value with respect to KRAS),[2]; KD ratio NRAS/KRAS,A (a compound having 10 or more and less than 20 is denoted as A)
CCC[C@H]1C(=O)N[C@@H]([C@@H](C)CC)C(=O)N(C)CC(=O)N(C)[C@H]2C/C=C\CCN(C2=O)[C@@H](Cc2ccc(C(F)(F)F)cc2)C(=O)N(C)CC(=O)N[C@@H](CCc2ccc(C(F)(F)F)c(OC)c2)C(=O)N2C[C@H](OCC)C[C@H]2C(=O)N(C)C2(CCC2)C(=O)N(C)[C@@H](C2CCCC2)C(=O)N(C)[C@H](C(=O)N(C)C)CC(=O)N1C [PP2312],HRAS/KRAS (ratio of KD value with respect to HRAS to KD value with respect to KRAS),[1]; [5],B (a compound having 3 or more and less than 10 is denoted as B)
same,NRAS/KRAS (ratio of KD value with respect to NRAS to KD value with respect to KRAS),[2]; [6],A (a compound having 10 or more and less than 20 is denoted as A)
CCO[C@@H]1C[C@H]2C(=O)NC3(CC(C)(C)C3)C(=O)N(C)[C@@H](C3CCCC3)C(=O)N(C)[C@H](C(=O)N(C)CC)CC(=O)N(C)[C@H]3CC/C=C/c4ccc(cc4)C[C@@H](C(=O)N(C)CC(=O)N[C@@H](CCc4ccc(Cl)c(Cl)c4)C(=O)N2C1)N1CC/C=C\C[C@@H](C1=O)N(C)C(=O)CN(C1CC1)C(=O)[C@H]([C@@H](C)CC)NC3=O [PP2598],HRAS/KRAS (ratio of KD value with respect to GDP-bound HRAS wild-type protein to KD value with respect to KRAS),[1]; KD ratio HRAS/KRAS,A (a compound having 10 or more and less than 20 is denoted as A)
same,NRAS/KRAS (ratio of KD value with respect to GDP-bound NRAS wild-type protein to KD value with respect to KRAS),[2]; KD ratio NRAS/KRAS,A (a compound having 10 or more and less than 20 is denoted as A)
CCCOC[C@H]1C(=O)N[C@@H]([C@@H](C)CC)C(=O)N(C)CC(=O)N(C)[C@H]2C/C=C\CCN(C2=O)[C@@H](CC2CCC(F)(F)CC2)C(=O)N(C)CC(=O)N[C@@H](CCc2ccc(C(F)(F)F)c(Cl)c2)C(=O)N2C[C@H](OCC)C[C@H]2C(=O)NC2(CC(C)(C)C2)C(=O)N(C)[C@@H](C(CC)CC)C(=O)N(C)[C@H](C(=O)N(C)C)CC(=O)N1C [PP2484],HRAS/KRAS (ratio of KD value with respect to HRAS to KD value with respect to KRAS),[1]; [5],A (a compound having 10 or more and less than 20 is denoted as A)
same,NRAS/KRAS (ratio of KD value with respect to NRAS to KD value with respect to KRAS),[2]; [6],A (a compound having 10 or more and less than 20 is denoted as A)
CCO[C@@H]1C[C@H]2C(=O)NC3(CCC3)C(=O)N(C)[C@@H](C3CCCC3)C(=O)N(C)[C@H](C(=O)N(C)C)CC(=O)N(C)[C@@H](Cc3cccc(F)c3)C(=O)N[C@@H]([C@@H](C)CC)C(=O)N(C)CC(=O)N(C)[C@H]3C/C=C\CCN(C3=O)[C@@H](Cc3ccc(C(F)(F)F)cc3)C(=O)N(C)CC(=O)N[C@@H](CCc3cc(F)c(C(F)(F)F)c(F)c3)C(=O)N2C1 [PP1126],HRAS/KRAS (ratio of KD value with respect to HRAS to KD value with respect to KRAS),[1]; [3],A (a compound having 10 or more and less than 20 is denoted as A)
same,NRAS/KRAS (ratio of KD value with respect to NRAS to KD value with respect to KRAS),[2]; [4],A (a compound having 10 or more and less than 20 is denoted as A)
